The values that follow come from ChEMBL document CHEMBL4024707, “Using gene expression database to uncover biology functions of 1,4-disubstituted 1,2,3-triazole analogues synthesized via a copper (I)-catalyzed reaction” (Eur J Med Chem, 2017).

Experiment [1] concerns Hep 3B2. Put plainly: Cytotoxicity against human Hep3B cells at 20 uM after 24 hrs by MTT assay relative to control. Format: functional. A general note: Tetrazolium dyes change colour on reduction, which living cells bring about.
Experiment [2] deals with Hep 3B2. Put plainly: Induction of autophagy in human Hep3B cells after 48 to 72 hrs by acridine orange staining based flow cytometry. The class given is functional, cell-based.
Experiment [3] relates to Hep 3B2. The experiment is described as follows: Growth inhibition of human Hep3B cells after 48 hrs by MTT assay. Format: functional, cell-based.
Experiment [4] relates to Hep 3B2. Put plainly: Cell cycle arrest in human Hep3B cells assessed as accumulation at S phase at 10 uM after 48 hrs in absence of curcumin by propidium iodide staining based flow cytometry (reference value: 23.8 +/- 1.9%). The class given is functional. Background: In flow cytometry, cells or beads pass a laser one at a time.
Experiment [5] deals with Hep 3B2. Put plainly: Cell cycle arrest in human Hep3B cells assessed as accumulation at S phase at 10 uM after 48 hrs in presence of curcumin by propidium iodide staining based flow cytometry (reference value: 23.8 +/- 1.9%). Format: functional.
Experiment [6] relates to Hep 3B2. Put plainly: Cell cycle arrest in human Hep3B cells assessed as accumulation at G2/M phase at 10 uM after 48 hrs in absence of curcumin by propidium iodide staining based flow cytometry (reference value: 36.6 +/- 2.9%). The class given is functional.
The test system of experiment [7] is Hep 3B2. Put plainly: Cell cycle arrest in human Hep3B cells assessed as accumulation at G2/M phase at 10 uM after 48 hrs in presence of curcumin by propidium iodide staining based flow cytometry (reference value: 36.6 +/- 2.9%). The class given is functional.
The test system of experiment [8] is Hep 3B2. The experiment is described as follows: Induction of autophagy in human Hep3B cells assessed as ratio of LC3-2 to beta-actin level at 10 uM after 48 hrs in absence of curcumin by Western blot analysis. The class given is functional. (In general: A western blot detects proteins with antibodies after separation by electrophoresis.)
The subject of experiment [9] is Hep 3B2. The experiment is described as follows: Up regulation of ARFIP2 expression in human Hep3B cells at 1 uM after 6 to 24 hrs by L1000 expression profiling method relative to control. Format: functional.
Experiment [10] relates to Hep 3B2. Put plainly: Up regulation of CDCA4 expression in human Hep3B cells at 1 uM after 6 to 24 hrs by L1000 expression profiling method relative to control. Format: functional.
The subject of experiment [11] is Hep 3B2. Put plainly: Up regulation of OXA1L expression in human Hep3B cells at 1 uM after 6 to 24 hrs by L1000 expression profiling method relative to control. Format: functional.
Experiment [12] relates to Hep 3B2. The experiment is described as follows: Up regulation of CDKN1A expression in human Hep3B cells at 1 uM after 6 to 24 hrs by L1000 expression profiling method relative to control. Format: functional.
For experiment [13], the system named is Hep 3B2. Put plainly: Down regulation of SLC27A3 expression in human Hep3B cells at 1 uM after 6 to 24 hrs by L1000 expression profiling method relative to control. Format: functional.
For experiment [14], the system named is Hep 3B2. The experiment is described as follows: Down regulation of PTPRK expression in human Hep3B cells at 1 uM after 6 to 24 hrs by L1000 expression profiling method relative to control. The class given is functional.
In experiment [15] the test system is Hep 3B2. The experiment is described as follows: Down regulation of UBE2J1 expression in human Hep3B cells at 1 uM after 6 to 24 hrs by L1000 expression profiling method relative to control. Format: functional.
The subject of experiment [16] is Hep 3B2. The experiment is described as follows: Down regulation of IL1B expression in human Hep3B cells at 1 uM after 6 to 24 hrs by L1000 expression profiling method relative to control. The class given is functional.
For experiment [17], the system named is Hep 3B2. Put plainly: Down regulation of TGFB3 expression in human Hep3B cells at 1 uM after 6 to 24 hrs by L1000 expression profiling method relative to control. The class given is functional.
Experiment [18] concerns Hep 3B2. The experiment is described as follows: Down regulation of EDN1 expression in human Hep3B cells at 1 uM after 6 to 24 hrs by L1000 expression profiling method relative to control. The class given is functional.
Experiment [19] has as its system Hep 3B2. The experiment is described as follows: Down regulation of PLA2G4A expression in human Hep3B cells at 1 uM after 6 to 24 hrs by L1000 expression profiling method relative to control. The class given is functional.
For experiment [20], the system named is Hep 3B2. Put plainly: Down regulation of TFAP2A expression in human Hep3B cells at 1 uM after 6 to 24 hrs by L1000 expression profiling method relative to control. The class given is functional.
Experiment [21] deals with Hep 3B2. The experiment is described as follows: Down regulation of TMX2-CTNND1 expression in human Hep3B cells at 1 uM after 6 to 24 hrs by L1000 expression profiling method relative to control. The class given is functional.
Experiment [22] relates to Hep 3B2. The experiment is described as follows: Down regulation of GNA15 expression in human Hep3B cells at 1 uM after 6 to 24 hrs by L1000 expression profiling method relative to control. The class given is functional.
The subject of experiment [23] is Hep 3B2. The experiment is described as follows: Down regulation of CHAC1 expression in human Hep3B cells at 1 uM after 6 to 24 hrs by L1000 expression profiling method relative to control. Format: functional.
For experiment [24], the system named is Hep 3B2. The experiment is described as follows: Down regulation of SNX13 expression in human Hep3B cells at 1 uM after 6 to 24 hrs by L1000 expression profiling method relative to control. Format: functional.
Experiment [25] has as its system Hep 3B2. The experiment is described as follows: Down regulation of SNX7 expression in human Hep3B cells at 1 uM after 6 to 24 hrs by L1000 expression profiling method relative to control. The class given is functional.
Experiment [26] concerns Hep 3B2. The experiment is described as follows: Down regulation of DNMT3A expression in human Hep3B cells at 1 uM after 6 to 24 hrs by L1000 expression profiling method relative to control. The class given is functional.
Experiment [27] concerns Hep 3B2. The experiment is described as follows: Down regulation of EXT1 expression in human Hep3B cells at 1 uM after 6 to 24 hrs by L1000 expression profiling method relative to control. Format: functional.
In experiment [28] the test system is Hep 3B2. The experiment is described as follows: Down regulation of SUPV3L1 expression in human Hep3B cells at 1 uM after 6 to 24 hrs by L1000 expression profiling method relative to control. Format: functional.
For experiment [29], the system named is Hep 3B2. The experiment is described as follows: Down regulation of ARNT2 expression in human Hep3B cells at 1 uM after 6 to 24 hrs by L1000 expression profiling method relative to control. Format: functional.
Experiment [30] deals with Hep 3B2. The experiment is described as follows: Cell cycle arrest in human Hep3B cells assessed as accumulation at G0/G1 phase at 2.5 uM after 48 hrs by propidium iodide staining based flow cytometry (reference value: 39.7 to 40.4%). The class given is functional.
For experiment [31], the system named is Hep 3B2. The experiment is described as follows: Cell cycle arrest in human Hep3B cells assessed as accumulation at S phase at 2.5 uM after 48 hrs by propidium iodide staining based flow cytometry (reference value: 20.8 to 24%). The class given is functional.
Experiment [32] has as its system Hep 3B2. Put plainly: Cell cycle arrest in human Hep3B cells assessed as accumulation at S phase at 40 uM after 24 hrs by propidium iodide staining based flow cytometry (reference value: 22.6 to 27.1%). The class given is functional.
Experiment [33] has as its system Hep 3B2. The experiment is described as follows: Cell cycle arrest in human Hep3B cells assessed as accumulation at G0/G1 phase at 40 uM after 48 hrs by propidium iodide staining based flow cytometry (reference value: 39.7 to 40.4%). The class given is functional.
In experiment [34] the test system is Hep 3B2. Put plainly: Cell cycle arrest in human Hep3B cells assessed as accumulation at S phase at 40 uM after 48 hrs by propidium iodide staining based flow cytometry (reference value: 20.8 to 24%). Format: functional.
Experiment [35] deals with Hep 3B2. The experiment is described as follows: Cell cycle arrest in human Hep3B cells assessed as accumulation at G2/M phase at 40 uM after 72 hrs by propidium iodide staining based flow cytometry (reference value: 28.7 to 32.3%). The class given is functional.
For experiment [36], the system named is Hep 3B2. Put plainly: Induction of autophagy in human Hep3B cells at 40 uM after 24 hrs by acridine orange staining based flow cytometry (reference value: 1.1 to 1.3%). Format: functional.
The test system of experiment [37] is Hep 3B2. Put plainly: Induction of apoptosis in human Hep3B cells assessed as ratio of cleaved caspase-3 to beta actin level at 40 uM after 72 hrs in presence of curcumin by Western blot analysis. Format: functional.

Turning to `O=C1COc2ccccc2N1Cc1cn(CCC2OCCO2)nn1`, the Activity in experiment [1] is 24.1%; in experiment [2] it was “Dose-dependent effect”; in experiment [4], 13.9%; in experiment [5], 8.8%; in experiment [6], 37.1%; in experiment [7], 44.8%. The “growth inhibition (GI)” value in experiment [3] was “Dose-dependent effect”. Moreover, the Ratio in experiment [8] was 2.2. Besides, the log2FC in [9] is given as 3.4502; in experiment [10], 3.2705; in experiment [11], 3.2193; in experiment [12], 3.0523; in experiment [13] it was -3.1535; in experiment [14] it was -3.3276. In addition, the log2FC in [15] is -3.3451; in experiment [16], -3.3463; in experiment [17], -3.4573; in experiment [18] it was -3.5482; in experiment [19], -3.7476; in [20] it was -3.78. Also, the log2FC in experiment [21] is reported as -3.9071; in [22], -4.0259; in [23], -4.0849; in [24], -4.142; in experiment [25], -4.1511; in [26] it was -4.2565. Moreover, the log2FC is listed as -4.2621 in experiment [27], -4.4808 in experiment [28] and -5.0177 in [29].

For the molecule `COc1ccc(CNC(=O)Nc2ncc([N+](=O)[O-])s2)cc1`, the Activity in experiment [30] was 38.5%; in experiment [31], 23.2%; in experiment [32] it was 21.1%; in experiment [33] it was 34.7%; in experiment [34], 14.9%; in [35], 42.8%. The molecule also displayed an Activity in experiment [36] of 7.1%. The Ratio in experiment [37] is reported as 1.1.
